For one experiment, the target named is T1, AbP450-5021 (Atropa belladonna, UniProt A0A3G4RHX1).
T1 construct: full-length ORF in pEAQ-HT-DEST1, transiently produced in Nicotiana benthamiana leaves
Put plainly: transient expression in N. benthamiana leaves, UHPLC/HRMS of products. The format is cell-based. Particulars: 1 mM substrate hydrochloride infiltrated in leaf, 2 days.

For another experiment, the target named is T2, AbP450-116623 (Atropa belladonna, UniProt A0A3G4RHW9).
T2 construct: full-length ORF in pEAQ-HT-DEST1, transiently produced in Nicotiana benthamiana leaves
The experiment is described as above. It is filed as cell-based. The following applies: 1 mM substrate hydrochloride infiltrated in leaf, 2 days; ring-hydroxylation at carbon adjacent to ring nitrogen (isomer 1).

The record followed here is PMC9250511, “Metabolomics-guided discovery of cytochrome P450s involved in pseudotropine-dependent biosynthesis of modified tropane alkaloids” (Nature Communications, 2022).

T1 sequence (A0A3G4RHX1 entry or part of it): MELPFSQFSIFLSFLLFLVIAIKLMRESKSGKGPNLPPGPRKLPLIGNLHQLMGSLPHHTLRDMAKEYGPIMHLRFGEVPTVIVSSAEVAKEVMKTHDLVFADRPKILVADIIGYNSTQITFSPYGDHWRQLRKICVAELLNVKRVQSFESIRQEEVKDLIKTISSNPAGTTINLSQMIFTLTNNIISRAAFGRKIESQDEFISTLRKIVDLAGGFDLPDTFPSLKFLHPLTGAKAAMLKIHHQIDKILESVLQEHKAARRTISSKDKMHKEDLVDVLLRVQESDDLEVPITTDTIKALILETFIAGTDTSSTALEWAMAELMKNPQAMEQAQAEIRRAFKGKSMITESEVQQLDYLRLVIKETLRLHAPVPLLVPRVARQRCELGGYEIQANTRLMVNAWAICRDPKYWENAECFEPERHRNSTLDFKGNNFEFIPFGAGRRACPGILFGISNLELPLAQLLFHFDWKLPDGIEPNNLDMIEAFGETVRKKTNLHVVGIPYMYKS
T2 sequence (A0A3G4RHW9 entry or part of it): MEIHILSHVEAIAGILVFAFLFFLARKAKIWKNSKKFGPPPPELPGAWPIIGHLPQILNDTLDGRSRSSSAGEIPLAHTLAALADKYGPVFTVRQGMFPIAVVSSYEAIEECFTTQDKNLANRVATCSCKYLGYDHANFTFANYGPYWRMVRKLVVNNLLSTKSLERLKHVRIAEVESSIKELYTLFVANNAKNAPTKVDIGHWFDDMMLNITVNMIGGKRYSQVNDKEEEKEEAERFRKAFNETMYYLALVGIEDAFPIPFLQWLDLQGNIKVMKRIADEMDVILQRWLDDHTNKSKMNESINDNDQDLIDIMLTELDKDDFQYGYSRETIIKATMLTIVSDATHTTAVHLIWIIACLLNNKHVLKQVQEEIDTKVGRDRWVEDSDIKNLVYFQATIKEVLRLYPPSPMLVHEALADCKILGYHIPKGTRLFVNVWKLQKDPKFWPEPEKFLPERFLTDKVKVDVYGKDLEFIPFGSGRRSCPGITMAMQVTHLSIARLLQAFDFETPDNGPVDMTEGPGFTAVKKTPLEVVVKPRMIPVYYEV

For the compound `C/C=C(\C)C(=O)OC1CC2CCC(C1)N2C` (stereo not drawn) [compound 6, tigloyl pseudotropine], the “transient expression in N. benthamiana leaves, UHPLC/HRMS of products” value on AbP450-5021 (N-demethylation to tigloyl norpseudotropine, then ring-hydroxylation (isomer 2)) is reported as “producing AbP450-5021 alone using either tigloyl pseudotropine or tigloyl norpseudotropine as substrate”.
Regarding `C/C=C(\C)C(=O)O[C@@H]1C[C@H]2CC[C@@H](C1)N2` [compound 21, tigloyl norpseudotropine], the “transient expression in N. benthamiana leaves, UHPLC/HRMS of products” value on AbP450-5021 (ring-hydroxylation next to the esterified carbon (isomer 2)) was “producing AbP450-5021 alone using either tigloyl pseudotropine or tigloyl norpseudotropine as substrate”; at AbP450-116623 it was “Assays with AbP450-116623 alone and N-demethylated tigloyl norpseudotropine as substrate yielded tigloyl hydroxynorpseudotropine”.
